# Like-named read-outs stand apart in the source and are kept apart here.
# Key:
# Type in all cases: cell-based
# HIV-1(IIIB) = test: Inhibition of HIV-1 induced syncytium formation in CEM cells, wild type; settings: WT = HIV-1(IIIB), day 4, averages of 2 to 3 independent experiments; for EC50: Human immunodeficiency virus 1, IIIB, CCRF-CEM, 96 h
# In short: (§1)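 CEM, ≈300,000 cells/ml; ~100 CCID50 HIV-1(IIIB) or resistance-selected RT mutants (e.g. 188-Leu, arising from 188-His on passage without HEPT); 5-fold serial compound dilutions; syncytia counted microscopically, day 4 p.i.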
# HIV-1/100-Ile = test: Inhibition of HIV-1 induced syncytium formation in CEM cells, RT mutant 100-Ile; settings: day 4, averages of 2 to 3 independent experiments; for EC50: Human immunodeficiency virus 1, CCRF-CEM, 96 h
# In short: as §1
# HIV-1/106-Ala = test: Inhibition of HIV-1 induced syncytium formation in CEM cells, RT mutant 106-Ala; settings: day 4, averages of 2 to 3 independent experiments; for EC50: Human immunodeficiency virus 1, CCRF-CEM, 96 h
# In short: as §1
# HIV-1/Lys-138 = test: Inhibition of HIV-1 induced syncytium formation in CEM cells, RT mutant 138-Lys; settings: day 4, averages of 2 to 3 independent experiments; for EC50: Human immunodeficiency virus 1, CCRF-CEM, 96 h
# In short: as §1
# HIV-1/181-Cys = test: Inhibition of HIV-1 induced syncytium formation in CEM cells, RT mutant 181-Cys; settings: day 4, averages of 2 to 3 independent experiments; for EC50: Human immunodeficiency virus 1, CCRF-CEM, 96 h
# In short: as §1
# CEM cells = test: in vitro; settings: Table 2B; CEM cell proliferation; averages of 2 to 3 independent experiments
# In short: (§2)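 In CEM cells, the cytostatic value is the compound concentration giving 50% inhibition of cell proliferation. Parallel work used HIV-1(IIIB) and culture-selected resistant strains Lys-138, 181-Cys, 188-His and 188-Leu.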
# HIV-1/103-Asn = test: Inhibition of HIV-1 induced syncytium formation in CEM cells, RT mutant 103-Asn; settings: Human immunodeficiency virus 1, CCRF-CEM, 96 h, day 4, averages of 2 to 3 independent experiments
# In short: as §1
# HIV-1/188-Leu = test: Inhibition of HIV-1 induced syncytium formation in CEM cells, RT mutant 188-Leu; settings: Human immunodeficiency virus 1, CCRF-CEM, 96 h, day 4, averages of 2 to 3 independent experiments
# In short: as §1
# in vitro = settings: human, cem cells, CC50 (50% cytostatic concentration), CEM cell proliferation, averages of 2 to 3 independent experiments
# In short: as §2
# HIV-1 RT mutant strains = test: Antiviral activity in CEM cells against the HIV-1 RT mutant strains; settings: Human immunodeficiency virus 1, CCRF-CEM, read-out: EC50 values against the HIV-1 RT mutant strains
# From the text: (§3) CEM cells were obtained from the American Tissue Cell Culture Collection (Rockville, Md.). HIV-1(IIIB) was originally obtained from the culture supernatant of persistently HIV-1-infected H9 cells and was provided by R. C. Gallo and M. Popovic (National Cancer Institute, National Institutes of Health, Bethesda, Md.). […] 67: 5353-5359 (1993); HIV-1/Lys-138 ("Lys-138") was selected for resistance against TSAO-m^3T as described in Balzarini et al, Virology 192: 246-253 (1993) and Balzarini et al, Proc. Nat. Acad. Sci. USA 90: 6952-6956 (1993); HIV-1/181-Cys ("181-Cys") was selected for resistance against pyridinone L-697,661 as described in Balzarini et al, Virology 192: 246-253 (1993); and HIV-1/188-His ("188-His") was selected for resistance against HEPT as described in Balzarini et al, Mol. Pharmocol. 44: 694-701 (1993). 188-His was then further converted to HIV-1/188-Leu "188-Leu") upon further passage in cell culture in the absence of the HEPT.
# (§4) CEM cells were suspended at ≈300,000 cells per ml of culture medium and infected with approximately 100 CCID50 (CCID50 being the 50% cell culture infective dose) of HIV-1(IIIB) or one of the HIV-1 RT mutant strains described above. Then 100 μl of the infected cell suspensions was added to 200 μl microtiter plate wells containing 100 μl of appropriate serial (5-fold) dilutions of the test compounds. […]
# [1] = tested on: HIV-1(IIIB) and the HIV-1 RT mutants; test: Antiviral activity in CEM cells against wild type and RT mutants
# From the text: as §3, §4
# [2] = Table 2B, read-out: Antiviral Activity of Comparative Compounds EC50, 103-Asn
# [3] = Table 2B, read-out: Antiviral Activity of Comparative Compounds EC50, 188-Leu
# [4] = Table 2B, read-out: Antiviral Activity of Comparative Compounds EC50, WT
# [5] = Table 2B, read-out: Antiviral Activity of Comparative Compounds EC50, 100-Ile
# [6] = Table 2B, read-out: Antiviral Activity of Comparative Compounds EC50, 106-Ala
# [7] = Table 2B, read-out: Antiviral Activity of Comparative Compounds EC50, 138-Lys
# [8] = Table 2B, read-out: Antiviral Activity of Comparative Compounds EC50, 181-Cys
SMILES,"Antiviral Activity of Comparative Compounds EC50, WT (HIV-1(IIIB); Table 2B)","Antiviral Activity of Comparative Compounds EC50, 100-Ile (HIV-1/100-Ile; Table 2B)","Antiviral Activity of Comparative Compounds EC50, 106-Ala (HIV-1/106-Ala; Table 2B)","Antiviral Activity of Comparative Compounds EC50, 138-Lys (HIV-1/Lys-138; Table 2B)","Antiviral Activity of Comparative Compounds EC50, 181-Cys (HIV-1/181-Cys; Table 2B)",CC50 (50% cytostatic concentration) (CEM cells),EC50 (HIV-1/103-Asn; [2]),EC50 (HIV-1/188-Leu; [3]),EC50 (HIV-1(IIIB); [4]),EC50 (HIV-1/100-Ile; [5]),EC50 (HIV-1/106-Ala; [6]),EC50 (HIV-1/Lys-138; [7]),EC50 (HIV-1/181-Cys; [8]),CC50 (in vitro; Table 2B),other results
Cc1occc1C(=S)Nc1ccc(Cl)c(C=NOC(C)(C)C)c1 [Compound 114],0.05 µg/mL,0.085 µg/mL,0.13 µg/mL,0.075 µg/mL,0.075 µg/mL,5.8 µg/mL,,,,,,,,,
"CC(C)=CCOc1cc(NC(=S)c2ccsc2C)ccc1Cl [Compound IB, N-[4-chloro-3-(3-methyl-2-butenyloxy)-phenyl]-2-methyl-3thiophenecarbothioamide]",,,,,,,,,,,,,,,"EC50 (HIV-1(IIIB); Table 2A, read-out: Antiviral Activity EC50, WT): 0.003 µg/mL; EC50 (HIV-1/100-Ile; Table 2A, read-out: Antiviral Activity EC50, 100-Ile): 0.004 µg/mL; EC50 (HIV-1/103-Asn; Table 2A, read-out: Antiviral Activity EC50, 103-Asn): 0.004 µg/mL; EC50 (HIV-1/106-Ala; Table 2A, read-out: Antiviral Activity EC50, 106-Ala): 0.005 µg/mL; EC50 (HIV-1/Lys-138; Table 2A, read-out: Antiviral Activity EC50, 138-Lys): 0.005 µg/mL; EC50 (HIV-1/181-Cys; Table 2A, read-out: Antiviral Activity EC50, 181-Cys): 0.005 µg/mL; EC50 (HIV-1/188-Leu; Table 2A, read-out: Antiviral Activity EC50, 188-Leu): 0.6 µg/mL; CC50 (in vitro; Table 2A): 5.8 µg/mL; EC50 (HIV-1 RT mutant strains): 0.003 to 0.011 µg/mL; EC50 values against HIV-1(IIIB) and the HIV-1 RT mutants (in words) [1]: extremely low, and virtually similar EC50 values"
Cc1sccc1C(=S)Nc1ccc(Cl)c(C(=O)OC2CCCCC2)c1 [Compound 9],0.0032 µg/mL,0.057 µg/mL,0.03 µg/mL,0.02 µg/mL,0.032 µg/mL,6.0 µg/mL,0.13 µg/mL,≥ 2 µg/mL,,,,,,,
Cc1sccc1C(=S)Nc1ccc(Cl)c(C(=O)OC2CCCCC2)c1 [Compound 59],0.09 µg/mL,0.65 µg/mL,0.60 µg/mL,0.40 µg/mL,0.35 µg/mL,15 µg/mL,,,,,,,,,
CC=CCOc1cc(NC(=O)C2=C(CC)OCCS2)ccc1Cl [Compound 43],,,,,,,1.3 µg/mL,> 2 µg/mL,0.65 µg/mL,1.2 µg/mL,4.5 µg/mL,1.3 µg/mL,> 2 µg/mL,11 µg/mL,
Cc1sccc1C(=O)Nc1ccc(Cl)c(C(=O)OC2CCCCC2)c1 [Compound 58],0.19 µg/mL,5.5 µg/mL,7.0 µg/mL,6.0 µg/mL,5.0 µg/mL,6.5 µg/mL,,,,,,,,,
Cc1occc1C(=S)Nc1ccc(Cl)c(OCCC(C)C)c1 [Compound 44],,,,,,,0.08 µg/mL,> 10 µg/mL,0.0073 µg/mL,0.035 µg/mL,0.06 µg/mL,0.03 µg/mL,0.08 µg/mL,> 100 µg/mL,
CC=CCSc1cc(NC(=S)c2ccsc2C)ccc1Cl [Compound 8],,,,,,,0.023 µg/mL,> 2 µg/mL,0.0055 µg/mL,0.032 µg/mL,0.023 µg/mL,0.025 µg/mL,0.025 µg/mL,5.1 µg/mL,
CON=Cc1cc(NC(=S)c2ccoc2C)ccc1OC [Compound 4],,,,,,,0.4 µg/mL,0.93 µg/mL,0.007 µg/mL,0.22 µg/mL,0.22 µg/mL,0.039 µg/mL,0.59 µg/mL,> 100 µg/mL,
Cc1sccc1C(=S)Nc1ccc(Cl)c(OCC(=O)OC(C)(C)C)c1 [Compound 14],,,,,,,0.12 µg/mL,> 2 µg/mL,0.067 µg/mL,0.16 µg/mL,0.1 µg/mL,0.24 µg/mL,0.087 µg/mL,2.1 µg/mL,
CCC1=C(C(=O)Nc2ccc(Cl)c(C=NOC(C)(C)C)c2)SCCO1 [Compound 15],,,,,,,0.065 µg/mL,> 2 µg/mL,0.03 µg/mL,0.06 µg/mL,0.06 µg/mL,0.07 µg/mL,0.09 µg/mL,11.4 µg/mL,
Cc1sccc1C(=S)Nc1ccc(Cl)c(C(=O)OC(C(C)C)C(C)C)c1 [Compound 21],,,,,,,0.61 µg/mL,> 2 µg/mL,0.008 µg/mL,0.3 µg/mL,0.23 µg/mL,0.11 µg/mL,0.17 µg/mL,6 µg/mL,
